{"source": "patent US20080176787A1", "about": "“Parathyroid hormone analogues and methods of use” (priority 2005, published 2008)", "key": {"[1]": {"tested_on": "gonad-intact cynomolgus monkeys", "test": "52-week (12 months) daily subcutaneous study in gonad-intact young cynomolgus monkeys: bone mass, histomorphometry, % cortical porosity", "assay_type": "in vivo", "protocol": "The peptide [Leu^27]cyclo[Glu^22-Lys^26]-hPTH-(1-31)-NH2 Ostabolin-C™ was administered daily by subcutaneous injection to gonad-intact cynomolgus monkeys (4/sex/group) at dose levels of 0, 2, 10 and 25 μg/kg for 52 weeks. Monkeys were 30 to 40 months of age (2.3-3.5 kg) at treatment start. Tibiae were retained for histomorphometry following labeling with calcein green 15 and 5 days prior to euthanasia. Bone mass, as measured by DXA (dual-energy x-ray absorptiometry) and QCT (quantitative computed tomography), was increased at the lumbar spine, femur and tibia. Changes in vertebral BMD (bone mineral density) translated into significant increases in bone strength. […] Tibial cancellous bone volume increased by more than 50% in all the peptide [Leu^27]cyclo[Glu^22-Lys^26]-hPTH-(1-31)-NH2 treated groups compared to controls and in the tibial mid-diaphysis, increases in cortical width and relative cortical area with concurrent decreases in medullary area were observed. […] Increases in indices of bone formation were associated with decreases in indices of bone resorption (decreased bone resorption markers, decreased osteoclast surface area, minimal cortical porosity), consistent with the uncoupling of these events. This combination of anabolic and anti-catabolic actions may have significant therapeutic value in the treatment of osteoporosis.\nComparative data regarding increase in cortical bone porosity in monkey subjects using Ostabolin C at a variety of doses and using the prior art PTHs 1-34 is shown below."}, "[2]": {"tested_on": "post-menopausal women with low bone mineral density", "test": "Dose/weight cutoff subgroup analysis and modeling of Phase II 30 and 45 μg cohorts", "assay_type": "in vivo, human", "parameters": "Mean LS-BMD / FN-BMD / TH-BMD / P1NP / CTx: unit not given here", "protocol": "The effect of the dose optimization strategy was evaluated by performing subgroup analyses using actual data from the 30 and 45 μg cohorts of the study (i.e. creation of a new subgroup by combining all patients below the weight cutoff from the 30 μg dose group with all patients above the weight cutoff from the 45 μg dose group, shown in the table below).\nA variety of new subgroups were created out of the patients who participated in the Phase II clinical trial. The groups from Phase II are shown above, where each group received a single dose, either 7.5 μg, 15 μg, 30 μg, 45 μg, or placebo. The 30 μg and 45 μg dose groups were re-grouped, according to the weight of the patient, and over 100 new sub-groups were created. This approach of creating new sub-groups out of dosages which are relatively close to each other, is a novel way of conducting Phase II studies.\nFor the 105 patients who were originally given 30 or 45 μg, new groups were created by utilizing multiple weight cut-offs in increments of 0.5 kg. For example, one new group had the weight cut-off at 59 kg, meaning that every patient from the original low dose (30 μg) group who weighed less than 59 kg and every patient who weighed more than 59 kg from the original high dose (45 μg) group formed a new cohort. This new cohort represents a dose/weight cut-off of 59 kg, a group in which patients weighing less than 59 kg receive the low dose (30 μg) and patients weighing more than 59 kg receive the high dose (45 μg). Another example can be illustrated using a weight cutoff of 68 kg. Such a group would include all those patients who weigh less than 68 kg and who originally received the low dose (30 μg) as well as all those patients who weigh more than 68 kg and who originally received the high dose (45 μg). By using this method, over 100 separate cohorts were created by altering the dose/weight cut-off in increments of 0.5 kg. A summary of the data generated by these new dose/weight cut-off cohorts, using 68 kg and 59 kg as the dose/weight cut-off, is shown in the table below.\nThe table above illustrates the actual clinical profile obtained for two dose/weight cutoffs (59 kg which produces a higher exposure profile since more patients receive the higher dose and 68 kg in which more patients receive the lower dose). […] One problem with simple subgroup analysis is that endpoints with a small number of events can skew the observed profile because of large changes in incidence when one of these events moves from one side of the weight cutoff to the other. Therefore, the dose/weight cutoff methodology was applied systematically to the data from the 30 and 45 μg dose groups starting at the lowest weight patient in the study (corresponds to the 45 μg profile because everyone receives the high dose) and increasing the cutoff by 0.5 kg increments through 100 kg (corresponding to the 30 μg profile because everyone receives the low dose). The multiple cutoff profiles thus obtained when graphed can then smooth out the effect of individual events as illustrated for the effect on hypercalcemia. The effect of weight cutoff on clinical profile can then be modeled to eliminate the skewing effects of individual data points as illustrated in FIG. 37-40. This approach has been applied to primary and secondary endpoints in the study.\nAn important benefit of this modeling is that it is possible to project a clinical profile for a specific weight cutoff/dose exposure window with a high degree of accuracy since the effect of individual events is eliminated. The anticipated hypercalcemia and lumbar spine BMD profile for a 68 kg cutoff is illustrated in the table below, which compares the modeled hypercalcemia and lumbar spine BMD changes and the actual Phase II data for the 68 kg weight cutoff. It will also be possible to model the effects of even narrower exposure windows by using multiple dose cutoffs and different doses."}, "[3]": {"tested_on": "post-menopausal women with low bone mineral density", "test": "Phase II clinical study of subcutaneous Ostabolin-C in post-menopausal women with low BMD (BMD, bone markers, serum calcium, side effects)", "source_text": "A four month Phase II clinical study was undertaken to investigate the safety, tolerability and efficacy of Ostabolin-C™ in post-menopausal women with low bone mineral density (BMD). […] The clinical protocol is a 16-week phase II randomized, double-blind, placebo-controlled, parallel group, dose finding study to investigate the safety, tolerability and efficacy of Ostabolin-C™ in post-menopausal women with low bone mineral density (BMD). In this study, 261 patients underwent four months of daily dosing of placebo and four active groups. The active groups included daily administration of Ostabolin-C™ in doses of 7.5, 15, 30, and 45 μg. Ostabolin-C™ is formulated as a clear, colorless liquid provided in pre-filled syringes and injected subcutaneously (SC). Subjects self-administer SC 0.1 mL injections of their assigned dose of Ostabolin-C™ 7.5, 15, 30, and 45 μg or placebo daily for 16 weeks in rotating quadrants of the abdomen. The subjects were post-menopausal women (for at least 5 years) with moderate osteoporosis.\nThe key endpoints for the study include change in mean BMD at the lumbar spine, as assessed by dual energy x-ray absorptiometry (DEXA), and measured by change from the Baseline visit. The Baseline visit is the first visit of the patient, before undergoing any treatment. Secondary efficacy endpoints include the following, as measured by change from Baseline visit:\nDEXA: Bone formation and resorption markers: • Mean femoral neck BMD • Serum osteocalcin • Mean trochanter BMD • Serum amino terminal pro-peptide of type 1 pro-collagen (P1NP) • Mean total hip BMD • Mean radial BMD (distal and midshaft) • Bone specific alkaline phosphatase (BSAP) • Bone mineral content (BMC) • Serum C-telopeptide (CTx) • Bone area • Serum N-telopeptide (NTx)"}, "rats": {"tested_on": "rats", "test": "Rat oncogenicity study, 104 weeks subcutaneous", "assay_type": "in vivo", "settings": "0.5, 5, 30, and 50 μg/kg/day SC", "protocol": "Prior art PTHs cause osteosarcomas in animals if administered over a course of two years. The PTH peptides of the present invention, including Ostabolin-C™ and PTH 1-30, are administered subcutaneously to rats for 104 weeks at doses of 0.5, 5, 30, and 50 μg/kg/day. The test article is administered subcutaneously. […] This difference could be due to the different amino acids sequences and/or to the different signalling pathways activated by the PTH molecules."}}, "note": "Positions of bridges follow the written chain, without caps; N, C: chain ends. Residues, ends and D or L forms follow the SMILES beside them."}
{"molecule": "CC[C@H](C)[C@H](NC(=O)[C@H](CCC(=O)O)NC(=O)[C@H](CO)NC(=O)[C@@H](NC(=O)[C@@H](N)CO)C(C)C)C(=O)N[C@@H](CCC(N)=O)C(=O)N[C@@H](CC(C)C)C(=O)N[C@@H](CCSC)C(=O)N[C@@H](Cc1c[nH]cn1)C(=O)N[C@@H](CC(N)=O)C(=O)N[C@@H](CC(C)C)C(=O)NCC(=O)N[C@@H](CCCCN)C(=O)N[C@@H](Cc1c[nH]cn1)C(=O)N[C@@H](CC(C)C)C(=O)N[C@@H](CC(N)=O)C(=O)N[C@@H](CO)C(=O)N[C@@H](CCSC)C(=O)N[C@@H](CCC(=O)O)C(=O)N[C@@H](CCCNC(=N)N)C(=O)N[C@H](C(=O)N[C@H]1CCC(=O)NCCCC[C@@H](C(=O)N[C@@H](CC(C)C)C(=O)N[C@@H](CC(C)C)C(=O)N[C@@H](CCC(N)=O)C(=O)N[C@@H](CC(=O)O)C(=O)N[C@H](C(N)=O)C(C)C)NC(=O)[C@H](CCCNC(=N)N)NC(=O)[C@H](CC(C)C)NC(=O)[C@H](Cc2c[nH]c3ccccc23)NC1=O)C(C)C", "note": "[Ostabolin-C, [Leu^27]cyclo[Glu^22-Lys^26]-PTH-(1-31)-NH2] (H-SVSEIQLMHNLGKHLNSMERVEWLRKLLQDV-NH2; lactam 22-26)", "values": [{"measurement": "Bone mass (DXA, QCT) at lumbar spine, femur and tibia", "setting": "[1]; 2, 10, 25 μg/kg SC daily, 52 weeks", "result": "increased"}, {"measurement": "osteoclast surface", "setting": "[1]; 52 weeks", "result": "significant reduction"}, {"measurement": "Tibial cancellous bone volume increase compared to controls", "setting": "[1]; all treated groups (2, 10, 25 μg/kg SC daily, 52 weeks)", "result": "more than 50%"}, {"measurement": "CTx", "setting": "[2]; 59 kg cut", "result": 57.5}, {"measurement": "FN-BMD", "setting": "[2]; 59 kg cut", "result": 1.5}, {"measurement": "LS-BMD 3%", "setting": "[2]; 59 kg cut", "result": 80.8}, {"measurement": "LS-BMD 6%", "setting": "[2]; 59 kg cut", "result": 28.8}, {"measurement": "P1NP", "setting": "[2]; 59 kg cut", "result": 143.5}, {"measurement": "TH-BMD", "setting": "[2]; 59 kg cut", "result": 0.69}, {"measurement": "Mean LS-BMD", "setting": "[2]; 59 kg cut (30 μg below, 45 μg above)", "result": 4.95}, {"measurement": "CTx", "setting": "[2]; 68 kg cut", "result": 32.1}, {"measurement": "FN-BMD", "setting": "[2]; 68 kg cut", "result": 0.29}, {"measurement": "LS-BMD 3%", "setting": "[2]; 68 kg cut", "result": 78.0}, {"measurement": "LS-BMD 6%", "setting": "[2]; 68 kg cut", "result": 29.3}, {"measurement": "P1NP", "setting": "[2]; 68 kg cut", "result": 132.1}, {"measurement": "TH-BMD", "setting": "[2]; 68 kg cut", "result": 0.40}, {"measurement": "Mean LS-BMD", "setting": "[2]; 68 kg cut (30 μg below, 45 μg above)", "result": 4.65}, {"measurement": "LS-BMD 3%", "setting": "[2]; 68 kg cutoff, modeled", "result": 76.5}, {"measurement": "Mean LS-BMD", "setting": "[2]; 68 kg cutoff, modeled", "result": 4.57}, {"measurement": "bone resorption stimulation as % of expected effect of 20 μg Forteo", "setting": "[3]; 30 μg", "result": "approximately 50%"}, {"measurement": "CTx", "setting": "[3]; 30 μg (4 months)", "result": 1400, "unit": "pM/L"}, {"measurement": "FN-BMD (%)", "setting": "[3]; 30 μg (4 months)", "result": "−0.05", "unit": "%"}, {"measurement": "LS-BMD (%)", "setting": "[3]; 30 μg (4 months)", "result": 3.6, "unit": "%"}, {"measurement": "LS-BMD (%), subset with LS-BMD T score < −2.5", "setting": "[3]; 30 μg (4 months)", "result": 4.51, "unit": "%"}, {"measurement": "P1NP", "setting": "[3]; 30 μg (4 months)", "result": 50.0, "unit": "µg/L"}, {"measurement": "TH-BMD (%)", "setting": "[3]; 30 μg (4 months)", "result": 0.06, "unit": "%"}, {"measurement": "CTx", "setting": "[3]; 30 ug, 4 months", "result": 30.6}, {"measurement": "FN-BMD", "setting": "[3]; 30 ug, 4 months", "result": "−0.06"}, {"measurement": "LS-BMD 3%", "setting": "[3]; 30 ug, 4 months", "result": 59.6}, {"measurement": "LS-BMD 6%", "setting": "[3]; 30 ug, 4 months", "result": 19.1}, {"measurement": "Mean LS-BMD", "setting": "[3]; 30 ug, 4 months", "result": 3.72}, {"measurement": "P1NP", "setting": "[3]; 30 ug, 4 months", "result": 117.2}, {"measurement": "TH-BMD", "setting": "[3]; 30 ug, 4 months", "result": 0.07}, {"measurement": "BMD in the lumbar spine", "setting": "[3]; 45 μg", "result": "increase in BMD"}, {"measurement": "CTx", "setting": "[3]; 45 μg (4 months)", "result": 2900, "unit": "pM/L"}, {"measurement": "FN-BMD (%)", "setting": "[3]; 45 μg (4 months)", "result": 2.75, "unit": "%"}, {"measurement": "LS-BMD (%)", "setting": "[3]; 45 μg (4 months)", "result": 5.2, "unit": "%"}, {"measurement": "LS-BMD (%), subset with LS-BMD T score < −2.5", "setting": "[3]; 45 μg (4 months)", "result": 5.9, "unit": "%"}, {"measurement": "P1NP", "setting": "[3]; 45 μg (4 months)", "result": 79.5, "unit": "µg/L"}, {"measurement": "TH-BMD (%)", "setting": "[3]; 45 μg (4 months)", "result": 1.45, "unit": "%"}, {"measurement": "Mean % Change In Femoral Neck (BMD)", "setting": "[3]; 45 μg For 15 Weeks", "result": 2.75, "unit": "%"}, {"measurement": "Mean % Change In Total Hip (BMD)", "setting": "[3]; 45 μg For 15 Weeks", "result": 1.44, "unit": "%"}, {"measurement": "Mean % Change In Trochanter (BMD)", "setting": "[3]; 45 μg For 15 Weeks", "result": 2.24, "unit": "%"}, {"measurement": "CTx", "setting": "[3]; 45 ug, 4 months", "result": 60.3}, {"measurement": "FN-BMD", "setting": "[3]; 45 ug, 4 months", "result": 3.0}, {"measurement": "LS-BMD 3%", "setting": "[3]; 45 ug, 4 months", "result": 79.5}, {"measurement": "LS-BMD 6%", "setting": "[3]; 45 ug, 4 months", "result": 36.4}, {"measurement": "Mean LS-BMD", "setting": "[3]; 45 ug, 4 months", "result": 5.59}, {"measurement": "P1NP", "setting": "[3]; 45 ug, 4 months", "result": 160.5}, {"measurement": "TH-BMD", "setting": "[3]; 45 ug, 4 months", "result": 1.6}, {"measurement": "cortical BMD in distal and mid-shaft radius compared to placebo and Forteo", "setting": "[3]; 7.5, 15, and 30 μg", "result": "increases cortical BMD"}, {"measurement": "lumbar spine BMD", "setting": "[3]; 7.5, 15, and 30 μg daily, 15 weeks", "result": "increase in lumbar spine BMD"}, {"measurement": "hip, femoral neck, and trochanter BMD", "setting": "[3]; low doses, 15 weeks", "result": "mild BMD increase"}]}
{"molecule": "PTH(1-30) (SVSEIQLMHNLGKHLNSMERVEWLRKKLQD; Parathyroid hormone; UniProt P01270 32-61, looked up, fragment) [PTH 1-30]", "values": [{"measurement": "incidence of osteosarcomas compared to prior art PTH peptides", "setting": "rats", "result": "lower incidences of osteosarcomas"}]}
